The values that follow come from patent US20220251036A1, “DIFLUOROHALOALLYLAMINE SULFONE DERIVATIVE INHIBITORS OF LYSYL OXIDASES, METHODS OF PREPARATION, AND USES THEREOF” (PHARMAXIS LTD., priority 2019, published 2022).

SMILES strings stand for the structures.

In data set [1] the target is T1, recombinant human MAO-B (Homo sapiens, UniProt P27338).
T1 construct: purchased Sigma Aldrich
T1 sequence (P27338 1-520): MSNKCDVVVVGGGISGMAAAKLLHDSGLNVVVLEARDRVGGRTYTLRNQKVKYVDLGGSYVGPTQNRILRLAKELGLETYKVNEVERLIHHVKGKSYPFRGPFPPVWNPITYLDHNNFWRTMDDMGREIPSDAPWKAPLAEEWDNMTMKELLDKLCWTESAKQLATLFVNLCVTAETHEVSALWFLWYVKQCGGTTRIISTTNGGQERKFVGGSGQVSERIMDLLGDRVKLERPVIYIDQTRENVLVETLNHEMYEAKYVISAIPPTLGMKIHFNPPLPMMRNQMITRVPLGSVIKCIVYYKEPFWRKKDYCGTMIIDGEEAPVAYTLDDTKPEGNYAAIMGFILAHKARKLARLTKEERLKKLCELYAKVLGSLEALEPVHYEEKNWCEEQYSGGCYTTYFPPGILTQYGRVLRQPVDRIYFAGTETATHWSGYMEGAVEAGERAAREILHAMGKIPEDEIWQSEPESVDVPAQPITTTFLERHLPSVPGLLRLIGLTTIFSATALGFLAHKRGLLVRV
Description: MAO-B inhibition. The data set is classed as biochemical. Particulars: benzylamine 100 μM. The method, then: The specificity of the compounds of this invention was tested by determining their ability to inhibit MAO-B activity in vitro using recombinant human MAO-B (0.02 mg/mL; Sigma Aldrich). The assay was performed in a similar way as for human SSAO/VAP-1 (Example 8) except, the substrate benzylamine was used at 100 μM.

Data set [2] deals with T2, recombinant human MAO-A (Homo sapiens, UniProt P21397).
T2 construct: purchased Sigma Aldrich
T2 sequence (P21397 1-527): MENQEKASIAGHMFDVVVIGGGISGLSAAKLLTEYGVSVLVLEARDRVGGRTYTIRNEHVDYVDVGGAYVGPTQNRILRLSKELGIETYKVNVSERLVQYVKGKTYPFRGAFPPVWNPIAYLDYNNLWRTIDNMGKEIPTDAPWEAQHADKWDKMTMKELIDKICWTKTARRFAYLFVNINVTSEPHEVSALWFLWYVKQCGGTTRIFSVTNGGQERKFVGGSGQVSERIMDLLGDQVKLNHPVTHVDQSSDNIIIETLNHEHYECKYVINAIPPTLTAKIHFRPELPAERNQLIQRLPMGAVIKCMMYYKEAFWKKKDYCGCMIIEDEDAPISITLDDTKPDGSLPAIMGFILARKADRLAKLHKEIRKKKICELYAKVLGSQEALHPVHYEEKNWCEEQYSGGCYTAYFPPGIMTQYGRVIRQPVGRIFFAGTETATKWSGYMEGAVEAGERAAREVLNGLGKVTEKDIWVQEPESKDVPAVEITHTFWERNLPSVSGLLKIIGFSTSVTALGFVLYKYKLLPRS
As to the kind of experiment: MAO-A inhibition. It counts as biochemical. Conditions: 2 hours incubation, tyramine 100 μM. As to the method: The specificity of the compounds of this invention was tested by determining their ability to inhibit MAO-A activity in vitro, using recombinant human MAO-A (0.003 mg/mL; Sigma Aldrich). The assay was performed in a similar way as for human SSAO/VAP-1 (Example 8) except, the incubation with the test compounds was extended to 2 hours, and the substrate tyramine was used at 100 μM in place of benzylamine.

The target in data set [3] is T3, recombinant human DAO (Homo sapiens, UniProt P19801).
T3 construct: Gift: Prof; Boehm, Department of Clinical Pharmacology, Medical University, Vienna
T3 sequence (P19801 20-751): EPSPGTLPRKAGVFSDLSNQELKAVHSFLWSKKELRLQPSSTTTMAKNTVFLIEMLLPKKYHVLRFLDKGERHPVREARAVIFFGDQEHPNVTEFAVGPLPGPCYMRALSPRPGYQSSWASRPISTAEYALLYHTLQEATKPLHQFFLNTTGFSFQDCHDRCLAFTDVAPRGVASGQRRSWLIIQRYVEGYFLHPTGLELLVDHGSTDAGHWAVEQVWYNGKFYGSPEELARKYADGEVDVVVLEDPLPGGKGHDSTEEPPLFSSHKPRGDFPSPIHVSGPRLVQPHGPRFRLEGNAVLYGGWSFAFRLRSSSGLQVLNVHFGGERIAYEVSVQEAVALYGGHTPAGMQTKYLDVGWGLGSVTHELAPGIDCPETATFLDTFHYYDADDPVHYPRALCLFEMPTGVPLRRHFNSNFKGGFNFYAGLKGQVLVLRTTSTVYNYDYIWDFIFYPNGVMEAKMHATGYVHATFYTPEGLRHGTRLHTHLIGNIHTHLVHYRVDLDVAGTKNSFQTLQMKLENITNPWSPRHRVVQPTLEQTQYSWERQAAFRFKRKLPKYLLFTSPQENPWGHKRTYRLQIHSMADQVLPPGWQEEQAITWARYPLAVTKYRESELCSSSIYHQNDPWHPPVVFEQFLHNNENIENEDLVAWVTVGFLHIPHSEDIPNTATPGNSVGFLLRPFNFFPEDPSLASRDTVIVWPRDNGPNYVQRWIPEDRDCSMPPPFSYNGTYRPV
As to the kind of experiment: DAO inhibition. It counts as biochemical. Conditions: 2 hours incubation. As to the method: The specificity of the compounds of this invention was tested by determining their ability to inhibit DAO activity in vitro, using recombinant human DAO (100 ng/mL; kindly provided by Prof. Boehm, Department of Clinical Pharmacology, Medical University, Vienna). The assay was performed in a similar way as for human SSAO/VAP-1 (Example 8) except, the incubation with the test compounds was extended to 2 hours, and the substrate […] was used at 100 μM in place of benzylamine.

The subject of data set [4] is skin fibrosis. As to the kind of experiment: Mouse model of sclerosis (bleomycin-induced skin fibrosis). The data set is classed as in vivo, male C57BL/6. Particulars: […] in a topical formulation from day 3, histology after 21 days. As to the method: Subcutaneous bleomycin (0.1 U/kg) was administered every second day (for 21 days total) to male C57BL/6 to induced skin fibrosis as a model of sclerosis. […] Histology was completed after 21 days.

Data set [5] in a line: Skin permeability, Franz diffusion cell system. The data set is classed as in vitro ADME, human. Particulars: topical formulation containing 3% compound; for Concentration of Compound 1 in the receptor chamber: human skin. From the text:
Skin permeability is essential when considering topical application to treat skin conditions. One way to evaluate skin permeability is to use a Franz diffusion cell system with human skin as a membrane (Particle Sciences; Technical Brief 2009; Vol. 10). The donor compound, topically formulated, is applied on the top chamber and diffusion through the skin is monitored at relevant time points by sampling the solution in the receptor chamber via the sampling port. The concentration of Compound 1 was determined by quantitative HPLC analysis.

Usually IC50 stands for the concentration at which inhibition is half-maximal. Turning to `CNc1ccccc1S(=O)(=O)C(F)(F)/C(F)=C/CN` [Compound 4, (Z)-2-((4-amino-1,1,2-trifluorobut-2-en-yl)sulfony1)-N-methylaniline], the concentration for half-maximal inhibition (IC50) in data set [1] is not below 30 µM; in data set [2], 26.7 µM; in data set [3], more than 30 µM.

`NC/C=C(\F)C(F)(F)S(=O)(=O)Cc1ccccc1` [Compound 8, (Z)-4-(benzylsulfony1)-3,4,4-trifluorobut-2-en-1-amine]: the IC50 in data set [1] and in data set [2] was more than 30 µM throughout.

Take `N#CCCN` [BAPN, β-aminopropionitrile, reference compound]: the IC50 in data set [1], in data set [2] and in data set [3] was more than 30 µM each time.

For the molecule `Cc1ccccc1S(=O)(=O)C(F)(F)/C(F)=C/CN` [Compound 5, (Z)-3,4,4-trifluoro-4-(o-tolylsulfonyl)but-2-en-1-amine], the IC50 is more than 30 µM in data set [1] and 20.2 µM in data set [2].

Consider `NC/C=C(\F)C(F)(F)S(=O)(=O)c1ccccc1` [Compound 1, (Z)-3,4,4-trifluoro-4-(phenylsulfonyl)but-2-en-1-amine], for which the “average LOX score” value in data set [4] was “significant improvement”. In data set [4], the average collagen score entry is “significant improvement”. For the same molecule, in data set [4], the composite skin score entry is reported as “significant improvement”. The “Concentration of Compound 1 in the receptor chamber” value in data set [5] (0 hr) came out at 0 nM; in data set [5] (2 hr) it was 17 nM; in data set [5] (4 hr), 42 nM; in data set [5] (6 hr), 166 nM; in data set [5] (20 hr) it was 1742 nM. Besides, the “permeability and diffusion across the membrane (in words)” value in data set [5] (time dependent) is “good permeability and diffusion”.

Consider `Cc1ccc(S(=O)(=O)C(F)(F)/C(F)=C/CN)cc1` [Compound 6, (Z)-3,4,4-trifluoro-4-tosylbut-2-en-1-amine], for which the concentration for half-maximal inhibition (IC50) in data set [1] and in data set [2] was more than 30 µM throughout.

As to `CS(=O)(=O)c1ccc(COc2ccccc2S(=O)(=O)C(F)(F)/C(F)=C/CN)cc1` [Compound 10, (Z)-3,4,4-trifluoro-4-((2-((4-(methylsulfonyl)benzyl)oxy)phenyl)sulfonyl) but-2-en-1-amine], the figures for the IC50 in data set [1] and in data set [2] were more than 30 µM and 4.7 µM, respectively.
